# Measurements taken from PubChem BioAssay AID624491 (Broad Institute, 2012).
# The source made the active and inactive calls.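 Rule for the calls: active = fitted curve crossing a set activation limit at or below the highest valid dose tested; inconclusive = flat fit at 30 to 70% activation, or poor fit; inactive = the rest, including signal decreases.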
# Test system: D54 ERlucT glycosylation luciferase reporter, luminescence, 24 h
# Assay: blockers of NLG process in reporter cells – D54 ERlucT cells, luminescence, cherry-picks, dose response (AID 624491);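 note: signal gain reflects blocked N-linked glycosylation of a luciferase reporter; actives raise luciferase signal so AC26 marks activators of the reporter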
row,SMILES,AC26
1,COc1ccc2nc(C)cc(Nc3ccc(N4CCN(C)CC4)cc3)c2c1,694 nM
2,CCOc1ccc(N2C(=O)Nc3ccccc3C2(O)C(=O)N2CCN(c3ccccn3)CC2)cc1 (centres undefined),880 nM
3,CCN(CC)CCNc1nc2cc(OC)c(OC)cc2c2nc(-c3ccccc3)nn12,1860 nM
4,Cc1ccc(N2C(=O)Nc3ccccc3C2(O)C(=O)N2CCN(c3ccccn3)CC2)cc1C (centres undefined),330 nM
5,CCNCCNc1ccc([N+](=O)[O-])c2cccnc12,7750 nM
6,CC(C)n1cc(NC(=O)c2cc(-c3ccccc3)on2)cn1,1230 nM
7,CC(=O)c1cccc(NC(=O)CSc2ncc(C(=O)Nc3ccccc3)c(=O)n2C)c1,1350 nM
8,Cc1cc(C)cc(-n2c3ccc(NC(=O)Cc4cccc5ccccc45)cc3c(=O)n2C)c1,1780 nM
9,Cc1ccc(-c2nn3c(C)nnc3c3ccccc23)cc1S(=O)(=O)N1CCN(CCO)CC1,3870 nM
10,CN1CCN(C(c2ccc(Br)cc2)c2cc(Cl)c3cccnc3c2O)CC1 (centres undefined),1810 nM
11,O=C(N/N=C\c1ccc(CNS(=O)(=O)c2ccc(Cl)cc2)o1)C(=O)Nc1ccc(Oc2ccccc2)cc1,4890 nM
12,CCNC(=O)c1cc2c(=O)n3cccc(C)c3nc2n(CCc2ccccc2)c1=N,1520 nM
13,Nc1[nH]nc2nc(NCc3ccccc3)c3c(c12)CCN(Cc1ccccc1)C3,1030 nM
14,COc1cc(-n2c(N)c(C(=O)NCc3ccco3)c3nc4ccccc4nc32)cc(OC)c1OC,2090 nM
15,COc1ccc2c(c1)[C@H]1[C@H](CO2)[C@H](c2ccccc2)[C@]2(C)C(=O)Nc3ccccc3C(=O)N12,278 nM
16,C[C@H]1CN([C@@H](C)CO)C(=O)Cc2cc(NC(=O)CCC(F)(F)F)ccc2O[C@H]1CN(C)S(=O)(=O)c1ccc(Cl)cc1,2260 nM
17,O=C1c2ccccc2C(=O)N1Cc1cnc(N2CCN(c3ccccc3)CC2)s1,7870 nM
18,Cc1ccc(COc2cccc(/C=N/NC(=O)c3nnn(-c4nonc4N)c3C)c2)cc1,1160 nM
19,CC(=O)Nc1cccc(-c2ccnc3c2CC(C)(C(=O)NCC2CC2)O3)c1 (centres undefined),5110 nM
20,CCOC(=O)c1ccc(N=c2sc(C(=O)OC)cc(=O)n2Cc2ccco2)cc1,3830 nM
21,O=C(NCCN1C(=O)S/C(=C\c2ccc(Cl)cc2Cl)C1=O)C1=COCCO1,> 19500 nM (inactive)
22,O=C(/C=C/Sc1ccc(C(F)(F)F)cn1)c1ccccc1,3910 nM
23,Cc1cc(N2CCCCC2)nc(NCc2ccccc2)n1,> 19500 nM (inactive)
24,Cc1ccc2[nH]c(=O)c3cc(C(=O)NC(C)C)sc3c2c1,3990 nM
25,COc1cccc(C(NC(C)=O)c2nc(-c3ccccc3OC)cs2)c1 (centres undefined),452 nM
26,Cc1ccc(C(=O)N/C(=C\c2cccs2)C(=O)NCCc2c[nH]c3ccccc23)cc1C,4860 nM
27,O=c1cc(-c2ccccc2)[nH]c2ccc(F)cc12,198 nM

row,SMILES,AC26
1,Cc1ccc(S(=O)(=O)c2cc3c(=O)n4ccccc4nc3n(CCc3ccccc3)c2=N)cc1,84.5 nM
2,CCCNS(=O)(=O)c1cccc(C(=O)OCc2cc(=O)oc3cc(OC)ccc23)c1,834 nM
3,Cc1c(-c2nc(N)nc(Nc3ccccc3)n2)oc2ccccc12,3890 nM
4,COc1ccc(C2=Nn3c(nnc3-c3ccccc3F)SC2)cc1OC1CCOC1 (centres undefined),4730 nM
5,Cc1ccc(C=Nc2ccccc2C(N)=O)cc1,2520 nM
6,COc1ccc(C(=O)NC(=C(Cl)Cl)S(=O)(=O)c2ccc(C)cc2)cc1,10200 nM
7,Cn1c(=O)c([N+](=O)[O-])c(-n2ccnc2)c2ccccc21,4170 nM
8,CCc1ccc(N2C(=O)NC(=O)/C(=C\C=C\c3ccco3)C2=O)cc1,1280 nM
9,COc1cc(/C=C/C(=O)OCC(=O)NCc2ccc(F)cc2)ccc1O,1590 nM
10,COc1cc(F)ccc1-c1csc(C(NC(C)=O)c2ccc(F)c(F)c2)n1 (centres undefined),681 nM
11,NS(=O)(=O)c1cc(C(=O)NCCOc2ccccc2)c(Cl)cc1Cl,5620 nM
12,c1ccc2c(c1)nc(N1CCOCC1)c1c3ccccc3[nH]c21,7170 nM
13,NC(=O)c1cccc(-c2ccnc3c2CC(C(=O)NCc2ccccc2)O3)c1 (centres undefined),2000 nM
14,O=C(N/N=C/c1ccc(Cl)cc1)c1sccc1OCc1ccc(F)cc1,83.6 nM
15,O=[N+]([O-])c1cc(S(=O)(=O)C(F)(F)F)ccc1Sc1nc2ccccc2[nH]1,4570 nM
16,CCOc1cc(NC(=O)CCl)c(OCC)cc1NC(=O)CCl,1690 nM
17,COc1ccccc1OCC(=O)NNC(=O)c1ccoc1C,722 nM
18,Cn1nc(C(F)(F)F)c(/C=N/OC(=O)c2ccccc2Cl)c1SCc1ccc(Cl)cc1,3940 nM
19,CC(C)(C)OC(=O)[C@H](Cc1ccccc1)NC(=O)c1nc[nH]c1C(=O)N1CCc2ccccc2C1,3820 nM
20,N#CC1=C(N)Oc2c(c(=O)sc3ccccc23)C1c1cccnc1 (centres undefined),2860 nM
21,COc1ccc2nc3ccccc3nc2c1NC(=O)c1ccccc1Cl,11400 nM
22,O=C(CNC(=O)c1ccco1)N=Nc1c(O)n(CCc2ccccc2)c2ccccc12,1430 nM
23,O=C(Nc1cccc(-n2cnnn2)c1)c1cc(Cl)ccc1Cl,4570 nM
24,Cn1nc(-c2ccc(Cl)cc2)c2cc(C(=O)NC3CC3)sc21,6320 nM
25,Cc1ccc(C(=O)NC(=C(Cl)Cl)S(=O)(=O)c2ccc(C)cc2)cc1,2550 nM
26,Nc1c(C(=O)Nc2ccc(S(=O)(=O)N3CCCC3)cc2)sc2nc3ccc(OC(F)(F)F)cc3cc12,1160 nM
27,COc1cc(C#Cc2ccc3cc(CCCO)oc(=O)c3c2)cc(OC)c1,161 nM
